Reference: US20120324604A1, “PESTICIDAL MIXTURES CONTAINING ISOXAZOLINE DERIVATIVES AND A FUNGICIDE” (priority 2010, published 2012)

Experiments:
Type in all cases: cell-based
Pythium ultimum = Pythium ultimum (Damping Off) growth inhibition, microtiter plate, photometric
Experimental: Pythium ultimum (Damping Off):
Mycelial fragments of the fungus, prepared from a fresh liquid culture, were directly mixed into nutrient broth (potato dextrose broth). After placing a (DMSO) solution of the test compounds into a microtiter plate (96-well format) the nutrient broth containing the fungal spores was added.

Rhizoctonia solani = Rhizoctonia solani (Foot Rot, Damping-Off) growth inhibition, microtiter plate, photometric
Experimental: Rhizoctonia solani (Foot Rot, Damping-Off):
Mycelial fragments of the fungus from cryogenic storage were directly mixed into nutrient broth (potato dextrose broth). After placing a (DMSO) solution of the test compounds into a microtiter plate (96-well format) the nutrient broth containing the fungal spores was added.

Gaeumannomyces graminis = Gaeumannomyces graminis growth inhibition, microtiter plate, photometric
Experimental: Mycelial fragments of the fungus from cryogenic storage were directly mixed into nutrient broth (potato dextrose broth). After placing a (DMSO) solution of the test compounds into a microliter plate (96-well format) the nutrient broth containing the fungal spores was added.

[1] = test system: Glomerella lagenarium (syn. Colletotrichum lagenarium); assay: Glomerella lagenarium (Anthracnose of Cucurbits) growth inhibition, microtiter plate, photometric; details: alone
Experimental: Glomerella lagenarium (syn. Colletotrichum lagenarium), Anthracnose of Cucurbits:
(§1) Conidia of the fungus from cryogenic storage were directly mixed into nutrient broth (potato dextrose broth). After placing a (DMSO) solution of the test compounds into a microtiter plate (96-well format) the nutrient broth containing the fungal spores was added.

Septoria tritici = Septoria tritici (Leaf Blotch) growth inhibition, microtiter plate, photometric; details: for AVERAGE DEAD IN % A1: A1 alone; for AVERAGE DEAD IN %: alone
Experimental: Septoria tritici (Leaf Blotch):
as §1

[2] = test system: Mycosphaerella arachidis (syn. Cercospora arachidicola); assay: Mycosphaerella arachidis (Brown Leaf Spot of Groundnut) growth inhibition, microtiter plate, photometric; details: alone
Experimental: Mycosphaerella arachidis (syn. Cercospora arachidicola), Brown Leaf Spot of Groundnut (Peanut):
as §1

Fusarium culmorum = Fusarium culmorum (Root Rot) growth inhibition, microtiter plate, photometric; details: alone
Experimental: Fusarium culmorum (Root Rot):
as §1

[3] = single compound at 0.0390625 ppm AI
[4] = single compound at 0.078125 ppm AI
[5] = single compound at 0.15625 ppm AI
[6] = single compound at 0.3125 ppm AI
[7] = single compound at 0.625 ppm AI
[8] = applied alone, 0.0390625 ppm AI

Cc1cc(C2=NOC(c3cc(Cl)cc(Cl)c3)(C(F)(F)F)C2)ccc1C(=O)NC1(C)CSC1 (racemic) [A1]
0%: AVERAGE DEAD IN % (Pythium ultimum; [3]) | AVERAGE DEAD IN % (Pythium ultimum; [4]) | AVERAGE DEAD IN % (Pythium ultimum; [5]) | AVERAGE DEAD IN % (Pythium ultimum; [6]) | AVERAGE DEAD IN % (Pythium ultimum; [7]) | AVERAGE DEAD IN % (Pythium ultimum; single compound at 1.25 ppm AI) | AVERAGE DEAD IN % (Pythium ultimum; single compound at 2.5 ppm AI) | AVERAGE DEAD IN % (Pythium ultimum; single compound at 5 ppm AI) | AVERAGE DEAD IN % (Pythium ultimum; single compound at 10 ppm AI) | AVERAGE DEAD IN % (Pythium ultimum; single compound at 20 ppm AI) | AVERAGE DEAD IN % (Rhizoctonia solani; [8]) | AVERAGE DEAD IN % (Rhizoctonia solani; applied alone, 0.078125 ppm AI) | AVERAGE DEAD IN % (Rhizoctonia solani; applied alone, 0.15625 ppm AI) | AVERAGE DEAD IN % (Rhizoctonia solani; applied alone, 0.3125 ppm AI) | AVERAGE DEAD IN % (Rhizoctonia solani; applied alone, 0.625 ppm AI) | AVERAGE DEAD IN % (Rhizoctonia solani; applied alone, 1.25 ppm AI) | AVERAGE DEAD IN % (Rhizoctonia solani; applied alone, 2.5 ppm AI) | AVERAGE DEAD IN % (Rhizoctonia solani; applied alone, 5 ppm AI) | AVERAGE DEAD IN % (Rhizoctonia solani; applied alone, 10 ppm AI) | AVERAGE DEAD IN % (Rhizoctonia solani; applied alone, 20 ppm AI) | AVERAGE DEAD IN % (Rhizoctonia solani; [3]) | AVERAGE DEAD IN % (Rhizoctonia solani; [4]) | AVERAGE DEAD IN % (Rhizoctonia solani; [5]) | AVERAGE DEAD IN % (Rhizoctonia solani; [6]) | AVERAGE DEAD IN % (Rhizoctonia solani; [7]) | AVERAGE DEAD IN % (Rhizoctonia solani; single compound at 1.25 ppm AI) | AVERAGE DEAD IN % (Rhizoctonia solani; single compound at 2.5 ppm AI) | AVERAGE DEAD IN % (Rhizoctonia solani; single compound at 5 ppm AI) | AVERAGE DEAD IN % (Rhizoctonia solani; single compound at 10 ppm AI) | AVERAGE DEAD IN % (Rhizoctonia solani; single compound at 20 ppm AI) | AVERAGE DEAD IN % (Gaeumannomyces graminis; [8]) | AVERAGE DEAD IN % (Gaeumannomyces graminis; applied alone, 0.078125 ppm AI) | AVERAGE DEAD IN % (Gaeumannomyces graminis; applied alone, 0.15625 ppm AI) | AVERAGE DEAD IN % (Gaeumannomyces graminis; applied alone, 0.3125 ppm AI) | AVERAGE DEAD IN % (Gaeumannomyces graminis; applied alone, 0.625 ppm AI) | AVERAGE DEAD IN % (Gaeumannomyces graminis; applied alone, 1.25 ppm AI) | AVERAGE DEAD IN % (Gaeumannomyces graminis; applied alone, 2.5 ppm AI) | AVERAGE DEAD IN % (Gaeumannomyces graminis; applied alone, 5 ppm AI) | AVERAGE DEAD IN % (Gaeumannomyces graminis; applied alone, 10 ppm AI) | AVERAGE DEAD IN % (Gaeumannomyces graminis; applied alone, 20 ppm AI) | AVERAGE DEAD IN % (Gaeumannomyces graminis; [3]) | AVERAGE DEAD IN % (Gaeumannomyces graminis; [4]) | AVERAGE DEAD IN % (Gaeumannomyces graminis; [5]) | AVERAGE DEAD IN % (Gaeumannomyces graminis; [6]) | AVERAGE DEAD IN % (Gaeumannomyces graminis; [7]) | AVERAGE DEAD IN % (Gaeumannomyces graminis; single compound at 1.25 ppm AI) | AVERAGE DEAD IN % (Gaeumannomyces graminis; single compound at 2.5 ppm AI) | AVERAGE DEAD IN % (Gaeumannomyces graminis; single compound at 5 ppm AI) | AVERAGE DEAD IN % (Gaeumannomyces graminis; single compound at 10 ppm AI) | AVERAGE DEAD IN % (Gaeumannomyces graminis; single compound at 20 ppm AI) | AVERAGE DEAD IN % ([1]; 0.0390625 ppm AI) | AVERAGE DEAD IN % ([1]; 0.078125 ppm AI) | AVERAGE DEAD IN % ([1]; 0.15625 ppm AI) | AVERAGE DEAD IN % ([1]; 0.3125 ppm AI) | AVERAGE DEAD IN % ([1]; 0.625 ppm AI) | AVERAGE DEAD IN % ([1]; 1.25 ppm AI) | AVERAGE DEAD IN % ([1]; 2.5 ppm AI) | AVERAGE DEAD IN % ([1]; 5 ppm AI) | AVERAGE DEAD IN % ([1]; 10 ppm AI) | AVERAGE DEAD IN % ([1]; 20 ppm AI) | AVERAGE DEAD IN % A1 (Septoria tritici; 0.0390625 ppm AI) | AVERAGE DEAD IN % A1 (Septoria tritici; 0.078125 ppm AI) | AVERAGE DEAD IN % A1 (Septoria tritici; 0.15625 ppm AI) | AVERAGE DEAD IN % A1 (Septoria tritici; 0.3125 ppm AI) | AVERAGE DEAD IN % A1 (Septoria tritici; 0.625 ppm AI) | AVERAGE DEAD IN % A1 (Septoria tritici; 1.25 ppm AI) | AVERAGE DEAD IN % A1 (Septoria tritici; 2.5 ppm AI) | AVERAGE DEAD IN % A1 (Septoria tritici; 5 ppm AI) | AVERAGE DEAD IN % A1 (Septoria tritici; 10 ppm AI) | AVERAGE DEAD IN % A1 (Septoria tritici; 20 ppm AI) | AVERAGE DEAD IN % (Septoria tritici; 0.0390625 ppm AI) | AVERAGE DEAD IN % (Septoria tritici; 0.078125 ppm AI) | AVERAGE DEAD IN % (Septoria tritici; 0.15625 ppm AI) | AVERAGE DEAD IN % (Septoria tritici; 0.3125 ppm AI) | AVERAGE DEAD IN % (Septoria tritici; 0.625 ppm AI) | AVERAGE DEAD IN % (Septoria tritici; 1.25 ppm AI) | AVERAGE DEAD IN % (Septoria tritici; 2.5 ppm AI) | AVERAGE DEAD IN % (Septoria tritici; 5 ppm AI) | AVERAGE DEAD IN % (Septoria tritici; 10 ppm AI) | AVERAGE DEAD IN % (Septoria tritici; 20 ppm AI) | AVERAGE DEAD IN % ([2]; 0.0390625 ppm AI) | AVERAGE DEAD IN % ([2]; 0.078125 ppm AI) | AVERAGE DEAD IN % ([2]; 0.15625 ppm AI) | AVERAGE DEAD IN % ([2]; 0.3125 ppm AI) | AVERAGE DEAD IN % ([2]; 0.625 ppm AI) | AVERAGE DEAD IN % ([2]; 1.25 ppm AI) | AVERAGE DEAD IN % ([2]; 2.5 ppm AI) | AVERAGE DEAD IN % ([2]; 5 ppm AI) | AVERAGE DEAD IN % ([2]; 10 ppm AI) | AVERAGE DEAD IN % (Fusarium culmorum; 0.625 PPM AI) | AVERAGE DEAD IN % (Fusarium culmorum; 1.25 PPM AI) | AVERAGE DEAD IN % (Fusarium culmorum; 2.5 PPM AI) | AVERAGE DEAD IN % (Fusarium culmorum; 5 PPM AI) | AVERAGE DEAD IN % (Fusarium culmorum; 10 PPM AI) | AVERAGE DEAD IN % (Fusarium culmorum; 20 PPM AI)
